From the NIST ThermoML archive (doi:10.1021/je700260f)

Details: Liquid, Vibrating tube method

FC(C(F)(F)F)C(F)(F)F [1,1,1,2,3,3,3-heptafluoropropane]
Details | mass density [kg/m3]
293.14 K, 33440 kPa | 1551.5
293.14 K, 33474 kPa | 1551.5
293.14 K, 33518 kPa | 1551.7
293.14 K, 33554 kPa | 1551.8
293.14 K, 33589 kPa | 1552
293.15 K, 458 kPa | 1409.2
293.15 K, 459 kPa | 1409.3
293.15 K, 461 kPa | 1409.2
293.15 K, 466 kPa | 1409.3
293.15 K, 478 kPa | 1409.2
293.15 K, 498 kPa | 1409.3
293.15 K, 525 kPa | 1409.6
293.15 K, 545 kPa | 1409.8
293.15 K, 569 kPa | 1409.9
293.15 K, 591 kPa | 1410.2
293.15 K, 616 kPa | 1410.3
293.15 K, 647 kPa | 1410.5
293.15 K, 682 kPa | 1410.9
293.15 K, 712 kPa | 1411
293.15 K, 757 kPa | 1411.3
293.15 K, 1646 kPa | 1417.7
293.15 K, 1682 kPa | 1417.8
293.15 K, 1714 kPa | 1418.1
293.15 K, 1855 kPa | 1419.1
293.15 K, 2431 kPa | 1422.8
293.15 K, 2456 kPa | 1423.1
293.15 K, 2481 kPa | 1423.1
293.15 K, 2506 kPa | 1423.3
293.15 K, 2536 kPa | 1423.7
293.15 K, 2566 kPa | 1423.7
293.15 K, 2590 kPa | 1424
293.15 K, 2619 kPa | 1424.2
293.15 K, 2653 kPa | 1424.3
293.15 K, 3787 kPa | 1431.6
293.15 K, 3853 kPa | 1432
293.15 K, 3906 kPa | 1432.2
293.15 K, 3939 kPa | 1432.5
293.15 K, 3976 kPa | 1432.7
293.15 K, 4019 kPa | 1432.9
293.15 K, 4053 kPa | 1433.1
293.15 K, 4077 kPa | 1433.4
293.15 K, 4124 kPa | 1433.7
293.15 K, 4157 kPa | 1434
293.15 K, 4195 kPa | 1434
293.15 K, 4219 kPa | 1434.2
293.15 K, 4259 kPa | 1434.4
293.15 K, 4286 kPa | 1434.6
293.15 K, 4322 kPa | 1434.7
293.15 K, 4367 kPa | 1435
293.15 K, 4394 kPa | 1435.3
293.15 K, 4425 kPa | 1435.6
293.15 K, 4452 kPa | 1435.7
293.15 K, 4488 kPa | 1435.9
293.15 K, 4515 kPa | 1435.9
293.15 K, 4556 kPa | 1436.2
293.15 K, 4587 kPa | 1436.4
293.15 K, 4614 kPa | 1436.6
293.15 K, 4655 kPa | 1436.8
293.15 K, 4687 kPa | 1437
293.15 K, 4727 kPa | 1437.2
293.15 K, 4754 kPa | 1437.4
293.15 K, 4791 kPa | 1437.7
293.15 K, 4815 kPa | 1437.8
293.15 K, 4846 kPa | 1438.1
293.15 K, 5062 kPa | 1439.2
293.15 K, 5095 kPa | 1439.5
293.15 K, 5137 kPa | 1439.6
293.15 K, 5170 kPa | 1440
293.15 K, 5198 kPa | 1440
293.15 K, 5231 kPa | 1440.3
293.15 K, 5259 kPa | 1440.4
293.15 K, 5292 kPa | 1440.6
293.15 K, 5321 kPa | 1440.8
293.15 K, 5364 kPa | 1440.9
293.15 K, 5392 kPa | 1441.2
293.15 K, 5435 kPa | 1441.5
293.15 K, 5472 kPa | 1441.7
293.15 K, 5500 kPa | 1441.9
293.15 K, 5537 kPa | 1442.1
293.15 K, 5566 kPa | 1442.2
293.15 K, 5610 kPa | 1442.3
293.15 K, 5639 kPa | 1442.6
293.15 K, 5678 kPa | 1442.8
293.15 K, 5720 kPa | 1443
293.15 K, 5755 kPa | 1443.2
293.15 K, 5784 kPa | 1443.4
293.15 K, 5818 kPa | 1443.6
293.15 K, 5848 kPa | 1443.8
293.15 K, 5896 kPa | 1444
293.15 K, 5921 kPa | 1444.1
293.15 K, 5955 kPa | 1444.4
293.15 K, 5984 kPa | 1444.6
293.15 K, 6018 kPa | 1444.7
293.15 K, 6043 kPa | 1444.8
293.15 K, 6073 kPa | 1445
293.15 K, 6113 kPa | 1445.2
293.15 K, 6138 kPa | 1445.5
293.15 K, 6174 kPa | 1445.6
293.15 K, 6205 kPa | 1445.7
293.15 K, 6235 kPa | 1445.9
293.15 K, 6260 kPa | 1446.1
293.15 K, 6295 kPa | 1446.2
293.15 K, 6323 kPa | 1446.4
293.15 K, 6351 kPa | 1446.6
293.15 K, 6375 kPa | 1446.8
293.15 K, 6408 kPa | 1446.9
293.15 K, 6437 kPa | 1447
293.15 K, 6477 kPa | 1447.3
293.15 K, 6508 kPa | 1447.5
293.15 K, 6534 kPa | 1447.6
293.15 K, 6566 kPa | 1447.6
293.15 K, 6593 kPa | 1447.9
293.15 K, 6624 kPa | 1448.1
293.15 K, 6655 kPa | 1448.4
293.15 K, 6682 kPa | 1448.4
293.15 K, 6721 kPa | 1448.5
293.15 K, 6752 kPa | 1448.8
293.15 K, 6792 kPa | 1449
293.15 K, 6823 kPa | 1449.3
293.15 K, 6862 kPa | 1449.5
293.15 K, 6885 kPa | 1449.5
293.15 K, 6918 kPa | 1449.8
293.15 K, 6944 kPa | 1449.9
293.15 K, 6979 kPa | 1450
293.15 K, 7002 kPa | 1450.1
293.15 K, 7034 kPa | 1450.4
293.15 K, 7074 kPa | 1450.7
293.15 K, 7106 kPa | 1450.7
293.15 K, 7134 kPa | 1450.8
293.15 K, 7160 kPa | 1450.9
293.15 K, 7196 kPa | 1451.2
293.15 K, 7223 kPa | 1451.4
293.15 K, 7255 kPa | 1451.5
293.15 K, 7292 kPa | 1451.6
293.15 K, 7319 kPa | 1451.9
293.15 K, 7352 kPa | 1452
293.15 K, 7380 kPa | 1452.1
293.15 K, 7413 kPa | 1452.4
293.15 K, 7445 kPa | 1452.6
293.15 K, 7478 kPa | 1452.7
293.15 K, 7506 kPa | 1452.9
293.15 K, 7543 kPa | 1453.2
293.15 K, 7575 kPa | 1453.2
293.15 K, 7829 kPa | 1454.6
293.15 K, 8576 kPa | 1458.4
293.15 K, 8615 kPa | 1458.6
293.15 K, 8640 kPa | 1458.7
293.15 K, 8669 kPa | 1458.9
293.15 K, 8716 kPa | 1459.1
293.15 K, 8745 kPa | 1459.3
293.15 K, 8774 kPa | 1459.5
293.15 K, 8814 kPa | 1459.7
293.15 K, 8862 kPa | 1459.9
293.15 K, 8888 kPa | 1460
293.15 K, 8923 kPa | 1460.2
293.15 K, 8958 kPa | 1460.4
293.15 K, 8988 kPa | 1460.5
293.15 K, 9023 kPa | 1460.7
293.15 K, 9057 kPa | 1461
293.15 K, 9081 kPa | 1461.1
293.15 K, 9121 kPa | 1461.1
293.15 K, 9156 kPa | 1461.3
293.15 K, 9182 kPa | 1461.5
293.15 K, 9258 kPa | 1461.9
293.15 K, 9989 kPa | 1465.5
293.15 K, 10025 kPa | 1465.7
293.15 K, 10056 kPa | 1465.8
293.15 K, 10087 kPa | 1465.9
293.15 K, 10128 kPa | 1466.3
293.15 K, 10154 kPa | 1466.4
293.15 K, 10195 kPa | 1466.7
293.15 K, 10240 kPa | 1466.8
293.15 K, 10275 kPa | 1466.7
293.15 K, 10316 kPa | 1467.1
293.15 K, 10555 kPa | 1468.1
293.15 K, 10597 kPa | 1468.5
293.15 K, 10638 kPa | 1468.7
293.15 K, 10669 kPa | 1468.7
293.15 K, 10706 kPa | 1469
293.15 K, 10738 kPa | 1469.2
293.15 K, 10775 kPa | 1469.4
293.15 K, 10808 kPa | 1469.4
293.15 K, 10851 kPa | 1469.6
293.15 K, 10882 kPa | 1469.7
293.15 K, 10920 kPa | 1470
293.15 K, 10958 kPa | 1470.2
293.15 K, 11044 kPa | 1470.6
293.15 K, 11082 kPa | 1470.6
293.15 K, 11132 kPa | 1470.9
293.15 K, 11159 kPa | 1471.4
293.15 K, 11209 kPa | 1471.3
293.15 K, 11254 kPa | 1471.6
293.15 K, 11292 kPa | 1471.8
293.15 K, 11324 kPa | 1471.9
293.15 K, 11368 kPa | 1472.1
293.15 K, 11401 kPa | 1472.3
293.15 K, 11439 kPa | 1472.4
293.15 K, 11473 kPa | 1472.6
293.15 K, 11518 kPa | 1472.8
293.15 K, 11556 kPa | 1472.9
293.15 K, 11601 kPa | 1473.2
293.15 K, 11629 kPa | 1473.3
293.15 K, 11668 kPa | 1473.4
293.15 K, 11713 kPa | 1473.7
293.15 K, 11752 kPa | 1473.8
